Assay results published in PubChem BioAssay (NCI).
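Briefly, cells in 96-well plates were exposed to five compound concentrations for 48 h, and endpoints were estimated by linear interpolation. GI50 marks 50% less growth. TGI marks complete inhibition of growth.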

Columns and labels:
Experiment in all cases: DTP human tumour cell line panel, 48 h
[1] = test system: A549 NSCLC
[2] = test system: CAKI-1 renal
[3] = test system: CCRF-CEM leukemia
[4] = test system: EKVX NSCLC
[5] = test system: HOP-92 NSCLC
[6] = test system: NCI-H226 lung
[7] = test system: OVCAR-5 ovarian
[8] = test system: SF-268 CNS
[9] = test system: SNB-19 CNS
[10] = test system: UO-31 renal

Structure (SMILES) | GI50 [1] [µM] | TGI [1] [µM] | GI50 [2] [µM] | TGI [2] [µM] | GI50 [3] [µM] | TGI [3] [µM] | GI50 [4] [µM] | TGI [4] [µM] | GI50 [5] [µM] | TGI [5] [µM] | GI50 [6] [µM] | TGI [6] [µM] | GI50 [7] [µM] | TGI [7] [µM] | GI50 [8] [µM] | TGI [8] [µM] | GI50 [9] [µM] | TGI [9] [µM] | GI50 [10] [µM] | TGI [10] [µM]
Oc1cccc2ccc(N/N=C/c3cc(CN4CCCCC4)c(O)c4ncccc34)nc12 | 0.0365 | 1.15 | 0.309 | 2.14 | 0.0558 | 10.8 | 0.299 | 14.7 | 0.0165 | 0.0857 | 0.41 | 2.9 | 0.0639 | 13 | 0.0635 | 13.4 | 0.0413 | 18.7 | 0.0292 | 1.71
NCCn1c(=O)[nH]c(=O)[nH]c1=S | > 100 | > 100 | > 100 | > 100 | > 100 | > 100 | > 100 | > 100 | > 100 | > 100 | > 100 | > 100 | > 100 | > 100 | > 100 | > 100 | > 100 | > 100 | > 100 | > 100
Cc1ccc(NC(=O)C(=O)C(C#N)c2ccccc2C)cc1C (configuration not stated) | – | > 100 | – | > 100 | – | > 100 | – | > 100 | – | > 100 | – | > 100 | – | > 100 | – | > 100 | – | > 100 | – | > 100
CC1(C)C(=NNC(=O)C[N+](C)(C)C)C(C)(C)C1=NNC(=O)C[N+](C)(C)C | – | > 100 | – | > 100 | – | > 100 | – | > 100 | – | > 100 | – | > 100 | – | > 100 | – | > 100 | – | > 100 | – | > 100
O=C1c2cccnc2C(=O)c2nc3cc(N4CCN(C5CC5)CC4)ccc3nc21 | 0.213 | 0.669 | 0.439 | 3.05 | 2.56 | 9.83 | 1.68 | 4.02 | 2.93 | 9.95 | 1.46 | 4.08 | 1.34 | 3.07 | 1.24 | 4.93 | 0.465 | 3.63 | 0.259 | 1.92
Cc1ccc(-c2cn3ccnc3c(-c3ccc(Cl)cc3)n2)cc1 | 1.33 | > 49.8 | 0.0361 | 2.84 | 0.122 | > 100 | 0.543 | > 100 | 12.5 | > 93.2 | 10.3 | > 100 | 14.8 | > 100 | 0.0885 | 11.7 | 1.39 | > 65.4 | – | > 100
CC1OC(O[C@@H]2OC=C(C=O)[C@@]3(O)CC[C@H](C)[C@@H]23)C(O)C(O)C1O (some centres not stated) | – | > 100 | – | > 100 | – | > 100 | – | > 100 | – | > 100 | – | > 100 | – | > 100 | – | > 100 | – | > 100 | – | > 100
CCCCCCCCCCCC(=O)OCC1OC(n2cc(F)c(=O)[nH]c2=O)C(NC(=O)OCc2ccccc2)C(OC(=O)CCCCCCCCCCC)C1O (configuration not stated) | – | > 100 | – | > 100 | – | > 100 | – | > 100 | – | > 100 | – | > 100 | – | > 100 | – | > 100 | – | > 100 | – | > 100
O=[N+]([O-])C1C2C=CC(C2)[C@H]1c1ccco1 (some centres not stated) | – | > 100 | – | > 100 | – | > 100 | – | > 100 | – | 18.4 | – | > 100 | – | > 100 | – | > 100 | – | > 100 | – | > 100
CC[C@@H](C(=O)O)C1CC[C@H](C)C([C@@H](C)[C@H](O)[C@H](C)C(=O)[C@H](CC)C2O[C@]3(C=C[C@@H](O)[C@]4(CC[C@@](C)(C5CC[C@](O)(CC)[C@H](C)O5)O4)O3)[C@H](C)C[C@@H]2C)O1 (some centres not stated) | 0.282 | 14.1 | 0.19 | 18.2 | 0.619 | 20.5 | 0.523 | 22.5 | 0.317 | 4.93 | 1.19 | 10.8 | 2.48 | 50.8 | 1.31 | 16 | 0.323 | 3.65 | 0.784 | 15.9
CN(C)CCNc1c2c(c(NCCN(C)C)c3[nH]ccc13)C(=O)c1ccccc1C2=O | 0.748 | 13.3 | 2.56 | 6.72 | 0.281 | – | 0.903 | 2.65 | 6.08 | 28.5 | 5.03 | 15.8 | 2.1 | 13 | 1.39 | 5.91 | 0.93 | 12.1 | 2.28 | > 100
Cn1cccc1-c1cc(-c2cccs2)nc(N)c1C#N | > 100 | > 100 | > 100 | > 100 | > 100 | > 100 | > 100 | > 100 | > 100 | > 100 | > 100 | > 100 | > 100 | > 100 | > 100 | > 100 | > 100 | > 100 | > 100 | > 100
COc1ccc(/C(C#N)=C/c2ccccc2OC)cc1 | 6.19 | > 100 | 6.49 | > 100 | 3.34 | 30.3 | 41.1 | > 100 | 4.57 | 70.8 | 17.7 | > 100 | 55.4 | > 100 | 35.5 | > 100 | 30.3 | > 100 | 17 | > 100
CCCCCCCCCCC(C(=O)O)C1(C(=O)O)CCC(=O)O1 (configuration not stated) | – | > 100 | – | > 100 | – | > 100 | – | > 100 | – | > 100 | – | > 100 | – | > 100 | – | > 100 | – | > 100 | – | > 100
Cn1cc(-c2ccc3occ(-c4cccc(-c5ccncc5)c4)c3n2)cn1 | 0.714 | > 100 | 0.38 | > 100 | 0.923 | > 100 | 1.25 | > 100 | 2.76 | > 100 | 1.5 | > 100 | 3.96 | > 100 | 1.46 | > 100 | 1.21 | > 100 | 1.46 | > 100
C#CCOCn1cnc2c(Cl)ncnc21 | – | > 100 | – | > 100 | – | > 100 | – | > 100 | – | > 100 | – | > 100 | – | > 100 | – | > 100 | – | > 100 | – | > 100
Cc1ccc(N=Nc2c(O)c(C(=O)O)cc3ccccc23)cc1C | – | > 100 | – | > 100 | – | > 100 | – | > 100 | – | > 100 | – | > 100 | – | > 100 | – | > 100 | – | > 100 | – | > 100
COC(=O)[C@@]1(C)CC[C@]2(C)CC[C@]3(C)C4=CC=C5C(=CC(=O)C(O)=C5C)[C@]4(C)[C@@H](O)C[C@@]3(C)[C@@H]2C1 | 15.9 | 30.1 | 3.94 | 13.9 | 2.73 | 11.9 | 12.9 | 25.2 | 11.6 | 23.2 | 13.9 | 24.9 | 12.9 | 24.5 | 9.62 | 22.2 | 12.4 | 23.8 | 5.8 | 16.2
Cc1ccc(N=Cc2ccc3c(c2)OCO3)cc1C | – | > 100 | – | > 100 | – | > 100 | – | > 100 | – | > 100 | – | > 100 | – | > 100 | – | > 100 | – | > 100 | – | > 100
COc1ccc2c(c1)/C(=C\c1c(C)nc3sccn13)C(=O)N2 | 0.155 | > 100 | < 0.0485 | > 100 | 0.0979 | > 100 | 2.12 | > 100 | 0.83 | > 100 | 6.55 | 74.4 | 7.81 | > 100 | 15.7 | > 100 | 0.525 | > 100 | 0.0147 | 20.3
CC(CCC(=O)O)[C@H]1CCC2[C@@H]3CC[C@@H]4CC(O)CC[C@]4(C)C3CC[C@@]21C (some centres not stated) | 25.3 | > 100 | 26.7 | 72.3 | 21.9 | 85.3 | 44.4 | > 100 | 28 | 87.9 | 63.5 | > 100 | > 100 | > 100 | > 100 | > 100 | 56.5 | > 100 | 22.1 | 67.3
COc1cc(C2CC(c3ccc4c(c3)OCO4)=NN2C=O)cc(OC)c1OC (configuration not stated) | > 24.5 | > 100 | 1.25 | > 100 | 2.48 | > 100 | 3.74 | > 100 | – | > 100 | 8.06 | > 100 | 12.2 | > 100 | 6.88 | > 100 | 6.3 | > 100 | 3.81 | > 100
O=C(/C=C/c1ccccc1)c1cc(Br)ccc1O | – | 52.2 | – | 31.1 | – | 33.9 | – | 27.6 | – | 18.3 | – | 31.7 | – | 46.3 | – | 34 | – | 35.8 | – | 22.9
O=C1[C@H]2ON(c3ccccc3)C(c3ccccc3Cl)[C@H]2C(=O)N1c1ccc(Cc2ccc(N3C(=O)[C@@H]4ON(c5ccccc5)C(c5ccccc5Cl)[C@@H]4C3=O)cc2)cc1 (some centres not stated) | – | > 100 | – | > 100 | – | > 100 | – | > 100 | – | > 100 | – | > 100 | – | > 100 | – | > 100 | – | > 100 | – | > 100
CCCC(=O)OC1C(C(O)CO)OC2OC(C)(C)OC21 (configuration not stated) | – | > 100 | – | > 100 | – | < 3.16 | – | > 100 | – | > 100 | – | > 100 | – | > 100 | – | > 100 | – | > 100 | – | > 100
O=C(NCCCCCCNC(=O)n1cc(F)c(=O)[nH]c1=O)NCCCOCCOCCOCCOCCOCCOCCOCCOCCOCCOCCOCCOCCOCCOCCOCCOCCOCCOCCOCCOCCOCCCNC(=O)C(O)C(O)C(O)C(O)CO (configuration not stated) | – | > 100 | – | > 100 | – | > 100 | – | > 100 | – | > 100 | – | > 100 | – | > 100 | – | > 100 | – | > 100 | – | > 100
Cc1[nH]ccc2c1[nH]c1cc(=O)ccc12 | – | > 100 | – | > 100 | – | > 100 | – | > 100 | – | > 100 | – | > 100 | – | > 100 | – | > 100 | – | > 100 | – | > 100
COc1cccc2c1c(C(=O)C(=O)Nc1cc(C)no1)cn2Cc1ccc(F)cc1 | 23.8 | > 100 | 5.92 | > 45.4 | 6.24 | > 100 | 32.6 | > 100 | 14.2 | > 66 | 36.2 | > 100 | > 55.5 | > 100 | 8.73 | > 100 | 10.1 | > 100 | 8.77 | > 100
COc1ccc(-c2nn3c(-c4cc(F)c(Cl)cc4Cl)nnc3s2)cc1 | 39.1 | > 100 | 37.9 | > 100 | 28.8 | > 100 | 34.1 | > 100 | 24.2 | 77.9 | 47.9 | > 100 | 25.5 | 88.9 | 19.7 | > 100 | 39.4 | > 100 | 18.3 | > 100
Nn1c(NNC(=O)C(=O)Nc2cc(Cl)c(Cl)cc2Cl)n[nH]c1=S | – | > 100 | – | > 100 | – | > 100 | – | > 100 | – | > 100 | – | > 100 | – | > 100 | – | > 100 | – | > 100 | – | > 100
